From publication PMC11726555, “Photoswitchable Diazocine Derivative for Adenosine A3 Receptor Activation in Psoriasis” (Journal of the American Chemical Society, 2024)

How the values were obtained:
Format in all cases: cell-based
[1] = molecular target: T1, A1R (adenosine A1 receptor) (Homo sapiens, UniProt P30542); test: cAMP accumulation assay in HEK-293 cells expressing A1R (reference agonist)
T1 construct: gene ADORA1
T1 sequence (P30542 1-326): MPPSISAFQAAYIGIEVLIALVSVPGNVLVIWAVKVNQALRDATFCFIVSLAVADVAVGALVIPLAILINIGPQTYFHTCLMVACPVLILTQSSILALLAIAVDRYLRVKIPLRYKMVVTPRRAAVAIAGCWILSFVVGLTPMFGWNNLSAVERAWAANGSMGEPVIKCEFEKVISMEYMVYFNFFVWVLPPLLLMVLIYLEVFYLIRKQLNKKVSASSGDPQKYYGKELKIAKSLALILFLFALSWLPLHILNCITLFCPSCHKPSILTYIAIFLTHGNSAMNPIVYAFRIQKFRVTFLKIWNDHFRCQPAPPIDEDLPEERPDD

[2] = molecular target: T2, adenosine A3 receptor (A3R) (Homo sapiens, UniProt P0DMS8); test: inhibition of forskolin-stimulated cAMP accumulation in HEK-293 cells expressing A3R (partial agonist, Emax […]); conditions: read-out: IC50 (the source's name)
T2 construct: gene ADORA3
T2 sequence (P0DMS8 1-318): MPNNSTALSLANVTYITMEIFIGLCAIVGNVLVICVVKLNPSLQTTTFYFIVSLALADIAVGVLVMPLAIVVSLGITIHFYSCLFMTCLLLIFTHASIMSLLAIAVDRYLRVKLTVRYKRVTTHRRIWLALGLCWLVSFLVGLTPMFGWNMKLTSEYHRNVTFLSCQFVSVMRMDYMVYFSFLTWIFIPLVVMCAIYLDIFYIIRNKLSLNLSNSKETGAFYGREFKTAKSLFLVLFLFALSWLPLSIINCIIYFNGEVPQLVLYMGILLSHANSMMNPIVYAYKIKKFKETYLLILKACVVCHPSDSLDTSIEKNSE

[3] = molecular target: T2, adenosine A3 receptor (A3R); test: cAMP accumulation assay in HEK-293 cells expressing A3R (reference agonist)

OC[C@H]1O[C@@H](n2cnc3c(NC4CCCC4)ncnc32)[C@H](O)[C@@H]1O [CPA]
cAMP accumulation assay in HEK-293 cells expressing A1R (reference agonist) [1]: CPA (N^6-cyclopentyladenosine, selective A1R agonist) induced the maximum A3R- and A1R-mediated inhibition of cAMP accumulation

CNC(=O)[C@H]1O[C@@H](n2cnc3c(NCc4ccc5c(c4)/N=N/c4ccccc4CC5)ncnc32)[C@H](O)[C@@H]1O [compound 4, E-MRS7787]
EC50 [2]: 31 nM

CNC(=O)[C@@]12C[C@@H]1[C@@H](n1cnc3c(NCc4cccc(Cl)c4)nc(C#Cc4ccc(F)c(F)c4)nc31)[C@H](O)[C@@H]2O [MRS5698, (1S,2R,3S,4R,5S)-4-(6-((3-chlorobenzyl)amino)-2-((3,4-difluorophenyl)-ethynyl)-9H-purin-9-yl)-2,3-dihydroxy-N-methylbicyclo[3.1.0]hexane-1-carboxamide]
cAMP accumulation assay in HEK-293 cells expressing A3R (reference agonist) [3]: treatment with MRS5698 and CPA (N^6-cyclopentyladenosine, selective A1R agonist) induced the maximum A3R- and A1R-mediated inhibition of cAMP accumulation
